Patent US20240002388A1, “PYRIMIDINONE COMPOUNDS AND USES THEREOF” (HUTCHISON MEDIPHARMA LIMITED, priority 2020, published 2024)

Test system: L929 cell line (mouse fibroblastoma cell line)
Experiment: L929 cell viability assay (mTNF-α + Z-VAD-FMK induced necroptosis)
Type: cell-based
Details: Mus musculus, L929, 20 h, L929 cells, mTNF-α 0.1 μg/mL + Z-VAD-FMK 5 μM, CellTiter-Glo
Summary of the method: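 L929 cells (4.9×10^3/well) in 1% FBS MEM got compound (10 to 0.005 μM, 0.3% DMSO), then 5 μM Z-VAD-FMK for 1 h, then 0.1 μg/mL mTNF-α for 20 h at 37 °C. CellTiter-Glo luminescence was normalised between TNF/Z-VAD and unstimulated wells, and IC50 was curve-fitted.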

| Structure (SMILES) | IC50 [nM] |
| --- | --- |
| CC(C)n1ncc2cnc(C(=O)NC3(c4ccc(-c5cncn([C@H]6C[C@H](F)C6)c5=O)cc4)CC3)nc21 [Compound 87, N-(1-(4-(1-(trans-3-fluorocyclobutyl)-6-oxo-1,6-dihydropyrimidin-5-yl)phenyl)cyclopropyl)-1-i-propyl-1H-pyrazolo[3,4-d]pyrimidine-6-carboxamide] | 393 |
| CC[C@@H](C)n1cncc(-c2ccc(C3(NC(=O)c4ncc5cnn(C(C)C)c5n4)CC3)cc2)c1=O [Compound 44] | 28 |
